Experimental data taken from US9611262B2, “Substituted 2-azabicycles and their use as orexin receptor modulators” (JANSSEN PHARMACEUTICA NV, priority 2014, dated 2017).

Key:
[1] = molecular target: rat orexin 1 receptor (Rattus norvegicus, UniProt P56718); assay: Rat orexin 1 receptor radioligand binding (competitive); settings: HEK293 cells stably expressing rat orexin 1 receptor; 4 nM radioligand; averages of 2-20 runs; read-out: rOX1 Ki
Procedure, shortened: (§1)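 Competition binding used HEK293 cells expressing rat OX1 or CHO cells expressing human OX1, with 4 nM final [3H]-labelled thiazolyl-oxadiazolyl-pyrrolidinyl methanone radioligand in PBS. Compounds were tested at 7 concentrations (0.1 nM–10 μM) for 60 min at room temperature, then filtered; 10 μM almorexant defined nonspecific binding. Ki was derived from the one-site IC50 and the radioligand Kd.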

[2] = molecular target: human orexin 1 receptor (Homo sapiens (Human), UniProt O43613); assay: Human orexin 1 receptor radioligand binding (competitive); settings: CHO cells stably expressing human orexin 1 receptor; 4 nM radioligand; averages of 2-20 runs; read-out: hOX1 Ki
Procedure, shortened: as §1

[3] = molecular target: human orexin 2 receptor (Homo sapiens (Human), UniProt O43614); assay: Human orexin 2 receptor radioligand binding ([3H]-EMPA competition); settings: HEK293 stably expressing human orexin 2 receptor; 2 nM [3H]-EMPA; averages of 2-20 runs; read-out: hOX2 Ki
Procedure, shortened: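 Membranes-free whole HEK293 cells stably expressing human OX2 receptor incubated with [3H]-EMPA and compound (7 concentrations, 0.1 nM–10 μM, ≤0.1% DMSO) for 60 min at room temperature; nonspecific binding with 10 μM almorexant. Filtration and scintillation counting; one-site IC50 converted to Ki using predetermined Kd, triplicates averaged over 2-20 runs.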

human orexin 1 receptor, sequence (O43613 whole entry): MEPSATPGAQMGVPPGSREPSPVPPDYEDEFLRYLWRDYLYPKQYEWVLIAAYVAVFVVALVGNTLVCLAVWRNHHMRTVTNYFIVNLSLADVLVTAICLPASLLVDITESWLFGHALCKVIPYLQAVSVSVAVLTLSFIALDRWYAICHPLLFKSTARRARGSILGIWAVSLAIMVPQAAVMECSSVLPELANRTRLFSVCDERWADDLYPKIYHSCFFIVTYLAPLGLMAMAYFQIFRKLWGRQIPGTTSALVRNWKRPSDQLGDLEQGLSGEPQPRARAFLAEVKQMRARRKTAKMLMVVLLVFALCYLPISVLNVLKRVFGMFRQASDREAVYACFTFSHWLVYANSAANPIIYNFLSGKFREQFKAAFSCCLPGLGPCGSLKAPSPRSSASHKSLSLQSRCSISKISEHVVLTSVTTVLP
human orexin 2 receptor, sequence (O43614 whole entry): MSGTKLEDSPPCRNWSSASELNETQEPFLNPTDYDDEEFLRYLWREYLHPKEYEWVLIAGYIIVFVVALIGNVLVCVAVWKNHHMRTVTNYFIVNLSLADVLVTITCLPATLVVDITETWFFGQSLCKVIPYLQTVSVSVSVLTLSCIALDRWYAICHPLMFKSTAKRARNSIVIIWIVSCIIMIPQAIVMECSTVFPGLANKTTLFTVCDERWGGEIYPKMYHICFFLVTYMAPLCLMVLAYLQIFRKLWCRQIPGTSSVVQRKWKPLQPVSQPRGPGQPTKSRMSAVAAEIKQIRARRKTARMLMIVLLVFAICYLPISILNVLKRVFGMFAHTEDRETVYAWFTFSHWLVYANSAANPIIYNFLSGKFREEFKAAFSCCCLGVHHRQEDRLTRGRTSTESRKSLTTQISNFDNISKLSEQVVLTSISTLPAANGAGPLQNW

SMILES	Ki [1] [nM]	Ki [2] [nM]	Ki [3] [nM]
C[C@@H]1[C@H]2C[C@@H](Oc3cnc(C(F)(F)F)cn3)[C@H](C2)N1C(=O)c1ncccc1-n1nccn1 (relative stereo) [Example 47, (3-(2H-1,2,3-triazol-2-yl)pyridin-2-yl)((1S*,3R*,4R*,6R*)-3-methyl-6-((5-(trifluoromethyl)pyrazin-2-yl)oxy)-2-azabicyclo[2.2.1]heptan-2-yl)methanone]	68	151	> 10000
Cc1cnc(-n2nccn2)c(C(=O)N2[C@H](C)[C@H]3C[C@@H](Oc4cnc(C(F)(F)F)cn4)[C@@H]2C3)c1 (relative stereo) [Example 50, (5-methyl-2-(2H-1,2,3-triazol-2-yl)pyridin-3-yl)((1S*,3R*,4R*,6R*)-3-methyl-6-((5-(trifluoromethyl)pyrazin-2-yl)oxy)-2-azabicyclo[2.2.1]heptan-2-yl)methanone]	23	30	> 10000
C[C@@H]1[C@H]2C[C@@H](Oc3cnc(C(F)(F)F)cn3)[C@H](C2)N1C(=O)c1cc(F)ccc1-n1nccn1 (relative stereo) [Example 54, (5-fluoro-2-(2H-1,2,3-triazol-2-yl)phenyl)((1S*,3R*,4R*,6R*)-3-methyl-6-((5-(trifluoromethyl)pyrazin-2-yl)oxy)-2-azabicyclo[2.2.1]heptan-2-yl)methanone]	26	18	3400
Cc1ccc(-n2nccn2)c(C(=O)N2[C@H](C)[C@H]3C[C@@H](Oc4cnc5cc(F)ccc5n4)[C@@H]2C3)n1 (relative stereo) [Example 186, ((1S*,3R*,4R*,6R*)-6-((6-fluoroquinoxalin-2-yl)oxy)-3-methyl-2-azabicyclo[2.2.1]heptan-2-yl)(6-methyl-3-(2H-1,2,3-triazol-2-yl)pyridin-2-yl)methanone]	18	12	125

Now from value to molecule:

Ki [1] [nM]	Ki [2] [nM]	Ki [3] [nM]	SMILES
18	14	2550	C[C@@H]1[C@H]2C[C@@H](Oc3cnc(C(F)(F)F)cn3)[C@H](C2)N1C(=O)c1cccc(F)c1-n1nccn1 (relative stereo) [Example 52, (3-fluoro-2-(2H-1,2,3-triazol-2-yl)phenyl)((1S*,3R*,4R*,6R*)-3-methyl-6-((5-(trifluoromethyl)pyrazin-2-yl)oxy)-2-azabicyclo[2.2.1]heptan-2-yl)methanone]
15	10	> 10000	COc1ccc(C(=O)N2[C@H](C)[C@H]3C[C@@H](Oc4cnc(C(F)(F)F)cn4)[C@@H]2C3)c(-n2nccn2)c1 (relative stereo) [Example 57, (4-methoxy-2-(2H-1,2,3-triazol-2-yl)phenyl)((1S*,3R*,4R*,6R*)-3-methyl-6-((5-(trifluoromethyl)pyrazin-2-yl)oxy)-2-azabicyclo[2.2.1]heptan-2-yl)methanone]
5	4	360	C[C@@H]1[C@H]2C[C@@H](Nc3ccc(C(F)(F)F)cn3)[C@H](C2)N1C(=O)c1ncccc1-c1ncccn1 (relative stereo) [Example 62, ((1S*,3R*,4S*,6R*)-3-methyl-6-((5-(trifluoromethyl)pyridin-2-yl)amino)-2-azabicyclo[2.2.1]heptan-2-yl)(3-(pyrimidin-2-yl)pyridin-2-yl)methanone]
3	4	78	Cc1ccc(-n2nccn2)c(C(=O)N2[C@H](C)[C@H]3C[C@@H](Nc4ccc(C(F)(F)F)cn4)[C@@H]2C3)n1 (relative stereo) [Example 63, (6-methyl-3-(2H-1,2,3-triazol-2-yl)pyridin-2-yl)((1S*,3R*,4S*,6R*)-3-methyl-6-((5-(trifluoromethyl)pyridin-2-yl)amino)-2-azabicyclo[2.2.1]heptan-2-yl)methanone]
